{"source": "patent US11974990B2", "about": "“TXNIP-TRX complex inhibitors and methods of using the same” (City of Hope, priority 2018, dated 2024)", "key": {"TNF-α mRNA": {"system": "TNF-α mRNA", "assay": "TNF-α mRNA expression (RT-PCR) in murine MIN6 pancreatic beta cells", "format": "cell-based", "settings": "25 mM glucose, 72 h (FIG. 11 right)", "experimental": "FIG. 11. […] MIN6 cells were cultured in 25 mM glucose with C1 at uM concentrations for 72 h. Total RNA was prepared. RT-PCR was performed. Data shown are the mean+SEM from triplicates. Statistical analysis was performed for each column vs. HG DMSO using one-way ANOVA: *<0.0001.\n(§1) RNA extraction and quantitative RT-PCR. RNA was extracted using the Direct-zol™ RNA MiniPrep Plus (Zymo Research). Reverse transcription of RNA samples into cDNA was performed using the GeneAmp RNA PCR Kit (Applied Biosystems), dNTP (from Roche Applied Science), Rnase inhibitor, MULV Reverse Transcriptase and Random hexamers reagent (all from Invitrogen). Diluted cDNA was quantified using real-time PCR performed with Power SYBR Green qPCR MasterMix (Applied Biosystem) and 7500 real-time PCR system (Applied Biosystems). The HPRT1 gene was used as an internal control."}, "TXNIP mRNA [1]": {"system": "TXNIP mRNA", "assay": "TXNIP mRNA expression (RT-PCR) in THP1 cells under 25 mM glucose", "format": "cell-based, human", "settings": "THP1, 25 mM glucose, concentration range of C1, 72 h (FIG. 9A)", "experimental": "FIGS. 9A-9B. FIG. 9A. […] THP1 cells were cultured in 25 mM glucose with the indicated concentrations of C1 for 72 h. Cell were collected for total RNA preparation. RT-PCR were performed and data shown are the mean+SEM from triplicates. Statistical analysis was performed using one-way ANOVA, *<0.0001. FIG. 9B. […] THP1 cells were cultured in 25 mM glucose and C1 (uM) as indicated for 72 hours and collected for total RNA preparation. RT-PCR was performed. Data shown are the mean+SEM from triplicates. Statistical analysis was performed using one-way ANOVA: *<0.02; **<0.0001.\nFIG. 13. C1 analogs affects TXNIP mRNA expression in THP1 cells. THP1 cells were cultured in 25 mM glucose with 5 uM of compounds for 72 h. Total RNA was collected and RT-PCR was performed in triplicate and data shown are the mean+SEM. Statistical analysis was performed using one-way ANOVA: *<0.0001.\nRNA extraction and quantitative RT-PCR. RNA was extracted using the Direct-zol™ RNA MiniPrep Plus (Zymo Research). […] Diluted cDNA was quantified using real-time PCR performed with Power SYBR Green qPCR MasterMix (Applied Biosystem) and 7500 real-time PCR system (Applied Biosystems). […]\nRNA extraction and quantitative RT-PCR. […] Diluted cDNA was quantified using real-time PCR performed with Power SYBR Green qPCR MasterMix (Applied Biosystem) and 7500 real-time PCR system (Applied Biosystems). […]"}, "TXNIP mRNA [2]": {"system": "TXNIP mRNA", "assay": "TXNIP mRNA expression (RT-PCR) in primary human pancreatic islets", "format": "cell-based", "settings": "human pancreatic islets (500 IEQ), 25 mM glucose, 48 h (FIG. 18)", "experimental": "FIG. 18. […] Human pancreatic islets (500 IEQ) were cultured with PIM(R) (Prodo Labs) in 25 mM glucose with C1 as indicated for 48 h. Total RNA was collected. RT-PCR was performed in triplicate and data shown are the mean+SEM. Statistical analysis was performed using one-way ANOVA: *<0.0001.\nas §1"}}, "note": "“Also recorded” adds a separate entry of the source.", "data": [{"smiles": "CC(C)C(C(=O)O)N1C(=O)c2ccncc2C1=O", "note": "(stereo not drawn) [Compound C1, 2-(1,3-dioxo-1,3-dihydro-2H-pyrrolo[3,4-c]pyridin-2-yl)-3-methylbutanoic acid]", "values": [{"measurement": "TNF-α mRNA levels", "setting": "TNF-α mRNA", "value": "did not decrease TNF-α levels"}, {"measurement": "TXNIP mRNA expression", "setting": "TXNIP mRNA [1]", "value": "inhibits TXNIP mRNA expression; also recorded: attenuate high glucose induced expression of inflammatory cytokine molecules and TXNIP in monocytes; also recorded: inhibit TXNIP expression in a dose-dependent manner"}, {"measurement": "TXNIP mRNA", "setting": "TXNIP mRNA [2]", "value": "targets TXNIP mRNA; also recorded: efficiently inhibited TXNIP mRNA"}]}]}
